The values that follow come from the CombiSolv-Exp solvation set (Vermeire and Green 2021).

The data set in a line: solvent given as SMILES.
Setting [1] is: in CCCCCCCCC=CCCCCCCCC(=O)OCC(COC(=O)CCCCCCCC=CCCCCCCCC)OC(=O)CCCCCCCC=CCCCCCCCC

Turning to `c1ccc(-c2ccccc2)cc1`, the “solvation free energy, 298 K” value by setting is: (in C1COCCO1) -38.9 kJ/mol; (in CC(C)(C)O) -33.7 kJ/mol; (in CC(C)CC(C)(C)C) -34.8 kJ/mol; (in CC(C)CC(C)O) -34 kJ/mol; (in CC(C)CCO) -34.1 kJ/mol; (in CC(C)CO) -33.6 kJ/mol. The “solvation free energy, 298 K” value (in CC(C)O) is -33.8 kJ/mol; the “solvation free energy, 298 K” value (in CC(C)OCCO) is -36.5 kJ/mol; the “solvation free energy, 298 K” value (in CCC(C)(C)O) was -34.7 kJ/mol; the “solvation free energy, 298 K” value (in CCC(C)O) is -34.3 kJ/mol; the “solvation free energy, 298 K” value (in CCCC(C)CO) was -34.5 kJ/mol; the “solvation free energy, 298 K” value (in CCCC(C)O) was -34.5 kJ/mol. The “solvation free energy, 298 K” value (in CCCCC(CC)CO) was -34.6 kJ/mol; the “solvation free energy, 298 K” value (in CCCCCC) is -35.7 kJ/mol; the “solvation free energy, 298 K” value (in CCCCCCC) is -35.7 kJ/mol; the “solvation free energy, 298 K” value (in CCCCCCCC) is -35.7 kJ/mol; the “solvation free energy, 298 K” value under setting [1] is -36.8 kJ/mol; the “solvation free energy, 298 K” value (in CCCCCCCCCC) is -35.5 kJ/mol. The “solvation free energy, 298 K” value was -35.1 kJ/mol (in CCCCCCCCO); -35 kJ/mol (in CCCCCCCO); -34.9 kJ/mol (in CCCCCCO); -34.9 kJ/mol (in CCCCCO); -37 kJ/mol (in CCCCOCCCC); -36.2 kJ/mol (in CCCCOCCO). For the same compound, the “solvation free energy, 298 K” value is -34.5 kJ/mol (in CCCO); -36.7 kJ/mol (in CCCOCCO); -34.4 kJ/mol (in CCO); -35.9 kJ/mol (in CCOCC); -36.6 kJ/mol (in CCOCCO); -39 kJ/mol (in CN(C)C=O). Moreover, the “solvation free energy, 298 K” value reads like this: (in CO) -33 kJ/mol; (in COC(C)(C)C) -37.8 kJ/mol; (in COC(C)CCO) -36.3 kJ/mol; (in ClC(Cl)(Cl)Cl) -38.6 kJ/mol; (in ClCCCl) -39.1 kJ/mol; (in ClCCl) -39.3 kJ/mol. Moreover, the “solvation free energy, 298 K” value (in Clc1ccccc1) is -38.7 kJ/mol and the “solvation free energy, 298 K” value (in O) was -11.1 kJ/mol.

Take `CC(N)=O`: the “solvation free energy, 298 K” value is, setting by setting: (in C=CCCCCCCC=C) -20.8 kJ/mol; (in C=CCCCCCCCCCCCCCC) -17.8 kJ/mol.

On to `O=C(c1ccc(Br)cc1)N(O)c1ccc(Cl)cc1`, for which the “solvation free energy, 298 K” value (in O) was -48.3 kJ/mol.

Turning to `Cc1cc(=O)n(-c2ccccc2)n1C`, the “solvation free energy, 298 K” value (in O) is -55.6 kJ/mol.

Turning to `C1COCCN1`, the “solvation free energy, 298 K” value by setting is: (in C1COCCO1) -23.9 kJ/mol; (in O) -30 kJ/mol.

For `CCCCCCCC(C)=O`, the “solvation free energy, 298 K” value is -22.7 kJ/mol (in NC=O) and -10.5 kJ/mol (in O).

In the case of `Clc1c(Cl)c(Cl)c2c(c1Cl)Oc1c(Cl)c(Cl)c(Cl)c(Cl)c1O2`, the “solvation free energy, 298 K” value (in O) is -19 kJ/mol.

On to `CN1CCCC1=O`, for which the “solvation free energy, 298 K” value was -24 kJ/mol (in C1CCCCC1), -24.8 kJ/mol (in CC(C)CC(C)(C)C), -32.8 kJ/mol (in O) and -28.6 kJ/mol (in c1ccccc1).

For `OCC(O)C(O)C(O)CO` (configuration not stated), the “solvation free energy, 298 K” value by setting is: (in CC(C)O) -56 kJ/mol; (in CCCCO) -55.5 kJ/mol; (in CCO) -57.8 kJ/mol; (in CN(C)C=O) -64.5 kJ/mol; (in O) -69.2 kJ/mol.

In the case of `COC(OC)(OC)C(F)(F)F`, the “solvation free energy, 298 K” value (in O) is -3.35 kJ/mol.

`CC(=O)CC(C)=O`: the “solvation free energy, 298 K” value (in C1CCCCC1) was -20.5 kJ/mol; the “solvation free energy, 298 K” value (in CC(C)O) is -21 kJ/mol; the “solvation free energy, 298 K” value (in CCC(C)O) was -21.1 kJ/mol; the “solvation free energy, 298 K” value (in CCCO) was -21 kJ/mol; the “solvation free energy, 298 K” value (in CCO) was -22.7 kJ/mol; the “solvation free energy, 298 K” value (in O) was -20.3 kJ/mol.

With `CCCCCCCCCCCCO`, the “solvation free energy, 298 K” value was -36.1 kJ/mol (in CC(C)CC(C)(C)C), -38.7 kJ/mol (in CCCCCC) and -42.8 kJ/mol under setting [1].

As to `CCOC(=O)CC(=O)OCC`, the “solvation free energy, 298 K” value (in O) was -25.1 kJ/mol.

In the case of `CCOC(C)OCC`, the “solvation free energy, 298 K” value (in ClCCCl) was -22 kJ/mol and the “solvation free energy, 298 K” value (in O) is -13.7 kJ/mol.

Consider `CCCCCCCCCCCCCCCC(=O)OCC`, for which the “solvation free energy, 298 K” value (in O) is -30.3 kJ/mol.

As for `CCCCN(C)N=O`, the “solvation free energy, 298 K” value (in CC(C)CC(C)(C)C) was -24 kJ/mol and the “solvation free energy, 298 K” value (in O) is -22.5 kJ/mol.

Take `Oc1ccc(F)cc1`: under “in O”, the “solvation free energy, 298 K” value is -25.9 kJ/mol.

`C=CC(C)(CCC=C(C)C)OC=O` (configuration not stated): the “solvation free energy, 298 K” value (in O) was -15.1 kJ/mol.

For the compound `CCCCO[N+](=O)[O-]`, the “solvation free energy, 298 K” value (in O) was -8.74 kJ/mol.

`FC(F)(F)CCl`: the “solvation free energy, 298 K” value is, setting by setting: (in CCCCCCCC(=O)OCC(COC(=O)CCCCCCC)OC(=O)CCCCCCC) -10.1 kJ/mol; (in O) 0.251 kJ/mol.

Consider `C1COCCOCCOCCOCCOCCO1`, for which the “solvation free energy, 298 K” value reads like this: (in Cc1cccc(C)c1) -54.1 kJ/mol; (in O) -65.2 kJ/mol.

Consider `C=C(C)CCC`, for which the “solvation free energy, 298 K” value (in O) came out at 6.11 kJ/mol.

With `Cc1cc(Cl)c(Cl)cc1Cl`, the “solvation free energy, 298 K” value was -33.4 kJ/mol under setting [1] and -4.39 kJ/mol (in O).

With `FC(F)(F)c1ccccc1`, the “solvation free energy, 298 K” value (in O) was -1.05 kJ/mol.

As to `CCCCC[N+](=O)[O-]`, the “solvation free energy, 298 K” value (in O) is -11.8 kJ/mol.

In the case of `Cc1ccncc1C`, the “solvation free energy, 298 K” value (in O) was -21.8 kJ/mol.

For the compound `FC(F)(F)C(Cl)Br` (configuration not stated), the “solvation free energy, 298 K” value runs as follows: (in C1CCOC1) -21 kJ/mol; (in C1COCCO1) -18.5 kJ/mol; (in CC(C)=O) -20 kJ/mol; (in COC(C)(C)C) -19.6 kJ/mol; (in COC(C)=O) -19.3 kJ/mol.

With `CCCC(=O)OC`, the “solvation free energy, 298 K” value is, setting by setting: (in CCCO) -18.7 kJ/mol; (in CO) -20.3 kJ/mol; (in O) -11.9 kJ/mol.

Consider `COc1ccc(C(=O)O)cc1`, for which the “solvation free energy, 298 K” value is -53.3 kJ/mol (in C1CCOC1); -51.9 kJ/mol (in C1COCCO1); -48.1 kJ/mol (in CC(C)CCO); -47.9 kJ/mol (in CC(C)CO); -49.3 kJ/mol (in CC(C)O); -45.2 kJ/mol (in CC(C)OC(C)C). In addition, the “solvation free energy, 298 K” value was -51.3 kJ/mol (in CC(C)OCCO); -50 kJ/mol (in CC(O)COC(C)(C)C); -49.1 kJ/mol (in CCC(C)O); -48.7 kJ/mol (in CCCC(C)O); -47.5 kJ/mol (in CCCCCCCCCCO); -48 kJ/mol (in CCCCCCCCO). Also, the “solvation free energy, 298 K” value is, setting by setting: (in CCCCCCCO) -48.2 kJ/mol; (in CCCCCCO) -48.4 kJ/mol; (in CCCCCO) -48.6 kJ/mol; (in CCCCO) -48.9 kJ/mol; (in CCCCOC(C)=O) -48 kJ/mol; (in CCCCOCCO) -51.2 kJ/mol. The “solvation free energy, 298 K” value reads like this: (in CCCO) -49.2 kJ/mol; (in CCCOCCO) -51.1 kJ/mol; (in CCO) -50.2 kJ/mol; (in CCOC(C)=O) -49.2 kJ/mol; (in CCOCC) -48.3 kJ/mol; (in CCOCCO) -52 kJ/mol. Besides, the “solvation free energy, 298 K” value runs as follows: (in COC(C)CCO) -51.4 kJ/mol; (in O) -38.2 kJ/mol.

`C=C(Cl)Cl`: the “solvation free energy, 298 K” value was -13.6 kJ/mol (in CCO), -12.3 kJ/mol (in CO) and 0.92 kJ/mol (in O).
